Here are results for 1 compound from patent publication EP2845588A1, “PIN1 inhibitors for use in the prevention and/or treatment of theileriosis, and related applications” (Centre National de la Recherche Scientifique (CNRS), priority 2013, dated 2015).

Molecules are shown by their SMILES.

Experiment [1] deals with T1, TaPIN WT (Theileria annulata, UniProt Q4UG71).
T1 construct: expressed in transfected cells; host or cells: TBL3 (T. annulata-infected bovine B cells), electroporated with the pREV-HA-FLAG-RIL2 TaPIN plasmid
The experiment can be described thus: CyclinD1-Luciferase reporter assay, TaPIN WT in TBL3 cells. It is filed as cell-based, T. annulata. The note with it: parasite-infected cells (TBL3). As for the experimental part:
Bovine cells were transfected with the 5xHRE (Staller et al., 2003) or CyclinD1- (Wulf et al., 2001) Luciferase reporters, using electroporation (Neon kit, Invitrogen, CA, USA). Mouse cells were transfected using Lipofectamine 2000 (Invitrogen, CA, USA). Transfections efficiencies were normalized to Renilla activity by co-transfection of a pRL-TK Renilla reporter plasmid (Promega, Ref.: E6241). Luciferase assays were performed 36h post-transfection using the Dual-Luciferase Reporter Assay System (Promega, Ref: E1980) in a microplate luminometer. Relative luminescence was represented as the ratio Firefly/Renilla luminescence, compared with the corresponding empty vector control. The 5xHRE promoter-Luciferase construct was obtained from P Staller (Biotech Research & Innovation Centre, Copenhagen, […]).

Experiment [2] deals with parasite load in infected TBL3 cells. The experiment can be described thus: Western blot analysis of parasite actin (TaActin) in infected TBL3 cells. The experiment is classed as cell-based, T.annulata. Particulars: 72h treatment.
The subject of experiment [3] is TpPIN protein. The experiment can be described thus: Immunoblot of TpPIN protein in nuclear and cytoplasmic fractions of T. parva-infected cells. The experiment is classed as cell-based. Particulars: nuclear and cytoplasmic fractions of T. parva-infected TpM409 B cells. The method, then: Cells were lysed in the following buffer: 5mM Tris HCL pH7.5, 40mM KCL, 2mM MgCL2, 0.5mM EDTA, 0.05mM Spermidine and Spermine, 0.1% NP-40, H2O. Lysates were incubated for 5min on ice and centrifuged for 10min at 5000rpm. The supernatant constitutes the Cytoplasmic fraction and the pellet constitutes the nuclear fraction.
Total proteins were extracted with Laemmli lysis, sonicated: 15 secs ON / 30 secs OFF for 5 min, resolved on 10.5% acrylamide/bis-acrylamide SDS-PAGE gels and transferred to nitrocellulose membranes (Thermo Fisher Scientific, MA, USA) in transfer buffer. Protein transfer was assessed by Ponceau-red staining. Membranes were blocked in Tris-buffered saline pH7.4 containing 0.1% Tween-20 and 5% milk for 1 h at room temperature. Incubations with primary antibodies were carried out at 4°C overnight using antibody dilutions as manufacturer recommendations in Trisbuffered saline pH7.4, 0.05% Tween-20 and 5% milk. Following 1 h incubation with an anti-rabbit or anti-mouse peroxidase-conjugated antibody (Sigma, St Louis, MO, USA) at room temperature, proteins were detected by chemiluminescence (Thermo Fisher Scientific, MA, USA) following the manufacturer's instructions. […]

Experiment [4] relates to parasite-infected cells (Theileria parva - TpMD409). The experiment in a line: Cell viability XTT assay, TpMD409. The experiment is classed as cell-based, bovine. Particulars: 72h. The method, then: (§1) All infected bovine cell lines used in this study were previously described: TBL3 cells were derived from in vitro infection of the spontaneous bovine-B lymphosarcoma cell line, BL3, with Hissar stock of T.annulata. The TpMD409 lymphocyte cell line are infected with T. parva. The culture conditions of these cell lines were previously described by Moreau et al., 1999. Cells were cultured in RPMI 1640 (Gibco-BRL, Paisley, UK), supplemented with 10% heat-inactivated Fetal calf serum, 4mM L-Glutamine, 25mM HEPES, 10µM β-mercaptoethanol and 100µg/ml penicillin/streptomycin in a humidified 5%CO2 atmosphere at 37°C. HepG2, NIH/3T3 and MEF cells lines were cultured in DMEM (Gibco-BRL, Paisley, UK), supplemented with 10% heat-inactivated Fetal calf serum, 4mM L-Glutamine, 25 mM HEPES, 10µM β-mercaptoethanol and 100µg/ml penicillin/streptomycin in a humidified 5% CO2 atmosphere at 37°C. Cell numbers, as judged by Trypan Blue exclusion test, were determined by counting cells using a Countess automated cell counter (Invitrogen, CA, USA). The anti-parasite drug Buparvaquone (BW720c) was used at 200ng/ml for 72 hours. BW720c has no effect on growth of uninfected cells. […]

For experiment [5], the system named is PKM2, HIF1α, Hexokinase II and PDK1 in TBL3 cells. The experiment in a line: Immunoblot of PKM2, HIF1α, Hexokinase II and PDK1 in TBL3 cells. It is filed as cell-based, bovine. The method, then:
Total proteins were extracted with Laemmli lysis, sonicated: 15 secs ON / 30 secs OFF for 5 min, resolved on 10.5% acrylamide/bis-acrylamide SDS-PAGE gels and transferred to nitrocellulose membranes (Thermo Fisher Scientific, MA, USA) in transfer buffer. Protein transfer was assessed by Ponceau-red staining. Membranes were blocked in Tris-buffered saline pH7.4 containing 0.1% Tween-20 and 5% milk for 1 h at room temperature. Incubations with primary antibodies were carried out at 4°C overnight using antibody dilutions as manufacturer recommendations in Trisbuffered saline pH7.4, 0.05% Tween-20 and 5% milk. Following 1 h incubation with an anti-rabbit or anti-mouse peroxidase-conjugated antibody (Sigma, St Louis, MO, USA) at room temperature, proteins were detected by chemiluminescence (Thermo Fisher Scientific, MA, USA) following the manufacturer's instructions. The following antibodies were used: Rabbit anti-TaPIN (Home-made antibody, Proteogenix, Peptide used: […]-Cys), rabbit anti-PIN1 (Cell Signaling, Ref: 3722), rabbit anti-TaActin (kindly provided by Jake Baum, Australia), rabbit anti-c-Jun (Santa Cruz, CA, USA Ref: sc1694), mouse anti-αTubulin (Sigma, Ref: T9026), , rabbit anti-HIF1α (Abcam, Cambridge, UK; Ref: ab75918), rabbit anti-Hexokinase II (Cell Signaling, Ref: C64G5), rabbit anti-PDK1 (Cell signaling, Ref: C47H1), mouse anti-HA (Roche, Ref: 11583816001), rabbit anti-FBW7 (Bethyl Laboratories, Ref: A301-721A), rabbit anti-Histone H3 (Abcam, Ref: ab1791), rabbit anti-PKM2 (Abcam, Ref: ab38237), mouse anti-Actin (Sigma, Ref: A1978) and monoclonal anti-FLAG M2-Peroxidase (Sigma, Ref: A8592). c-Jun, FBW7 or PKM2/Actin ratios were calculated after Western blot signal quantification with the Plot Lanes Analysis tool of Image J software (National Institutes of Health, Bethesda, MD, USA).

For experiment [6], the system named is HepG2 cells. The experiment can be described thus: Cell viability XTT assay, HepG2. The experiment is classed as cell-based, human. Particulars: 72h. As for the experimental part:
All infected bovine cell lines used in this study were previously described: TBL3 cells were derived from in vitro infection of the spontaneous bovine-B lymphosarcoma cell line, BL3, with Hissar stock of T.annulata. The TpMD409 lymphocyte cell line are infected with T. parva. The culture conditions of these cell lines were previously described by Moreau et al., 1999. Cells were cultured in RPMI 1640 (Gibco-BRL, Paisley, UK), supplemented with 10% heat-inactivated Fetal calf serum, 4mM L-Glutamine, 25mM HEPES, 10µM β-mercaptoethanol and 100µg/ml penicillin/streptomycin in a humidified 5%CO2 atmosphere at 37°C. HepG2, NIH/3T3 and MEF cells lines were cultured in DMEM (Gibco-BRL, Paisley, UK), supplemented with 10% heat-inactivated Fetal calf serum, 4mM L-Glutamine, 25 mM HEPES, 10µM β-mercaptoethanol and 100µg/ml penicillin/streptomycin in a humidified 5% CO2 atmosphere at 37°C. Cell numbers, as judged by Trypan Blue exclusion test, were determined by counting cells using a Countess automated cell counter (Invitrogen, CA, USA). The anti-parasite drug Buparvaquone (BW720c) was used at 200ng/ml for 72 hours. BW720c has no effect on growth of uninfected cells.
1×10^4 cells were plated in 96-well plates in triplicate and Buparvaquone, Juglone or PiB was added. […]

Experiment [7] relates to TBL3 cells transiently expressing TaPIN Mutant A53P. The experiment can be described thus: Proliferation of TBL3 cells transiently expressing TaPIN Mutant A53P. The note with it: transient expression of TaPIN Mutant A53P. It is filed as cell-based, bovine. The method, then: as §1
Experiment [8] concerns TaPIN transcripts. The experiment in a line: Quantitative PCR of TaPIN transcripts in T.annulata-infected cells. It is filed as cell-based. The method, then: Total cellular RNAs were extracted using an RNeasy Plus Mini Kit (Qiagen, Hilden, Germany) and parasite RNAs were extracted using the classical Trizol Protocol. cDNA synthesis was performed with the Reverse Transcriptase Superscript III (Invitrogen, CA, USA).
Quantitative PCR amplification was performed in the ABI 7500 machine (Applied Biosystems, CA, USA) using the Sybr Green reagent (Applied Biosystems, CA, USA) using the primers listed in Table 5 below. The detection of a single product was verified by dissociation curve analysis. Relative quantities of mRNA were analyzed using the delta Ct method. The βactin qPCR was used for normalization. Table 5: qPCR primers

T1 sequence (Q4UG71 33-142): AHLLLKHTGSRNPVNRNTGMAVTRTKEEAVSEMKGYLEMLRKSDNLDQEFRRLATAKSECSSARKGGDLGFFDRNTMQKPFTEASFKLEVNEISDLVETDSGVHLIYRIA

`CC(C)(C)C1CCC(CC2=C(O)C(=O)c3ccccc3C2=O)CC1` (centres unmarked) [Buparvaquone, 2-((4-tert-butylcyclohexyl)methyl)-3-hydroxy-1,4-naphthoquinone]: the “CyclinD1 promoter activation by TaPIN WT” value in experiment [1] is reported as “reversed”. Moreover, the “parasite load, parasite actin (TaActin)” value in experiment [2] is reported as “decreased parasite load”. Further, the TpPIN protein entry in experiment [3] is “decreased”. The “viability of parasite-infected cells” value in experiment [4] is “decreased the viability”. For the same compound, in experiment [5], the HIF1α protein expression result is “reduced” and the PKM2 protein expression result is on record as “reduced”. Also, in experiment [5] (HIF1α target gene), the “Hexokinase II” value is listed as “reduced” and the PDK1 entry is listed as “reduced”. In addition, the “viability of HepG2 cells” value in experiment [6] is “reduce the viability”. For the same compound, the “drug effect on TBL3 cell proliferation on overexpression of the TaPIN Mutant A53P” value in experiment [7] is on record as “rescued”. The TaPIN transcripts entry in experiment [8] is “lost”.
